# Assay results reported in PMC8522752 (Antimicrobial Agents and Chemotherapy, 2021).
# Where two headings read alike, the source gives them in different places.
# How the values were obtained:
# [1] = target: DENV NS5 protein (serotype 2) (Dengue virus type 2, UniProt P14340); experiment: Nucleotide analogue incorporation / RNA elongation assay; assay type: biochemical, dengue virus serotype 2; details: for effect on RNA synthesis after incorporation: P10/T20 primer-template, with or without GTP
# [2] = tested on: DENV; design: method as in PMID 22807519; details: cited from earlier work
# [3] = Cardiomyocyte assay (CellTiter Glo); assay type: cell-based; details: human iPS cardiomyocytes
# [4] = tested on: DENV2 D2Y98P; assay type: in vivo, AG129 mice
# [5] = monkeys, doses up to 1,000 mg/day for 14 days; S. S. Good, unpublished data
# [6] = human plasma, 2 μM, 120 min, 37°C
# [7] = Sprague Dawley rat plasma, 10 min of incubation
# [8] = cynomolgus monkey plasma, 2 μM, 120 min, 37°C
# [9] = design: dose or concentration left out as unconfirmed; details: rats, doses up to for 14 days; S. S. Good, unpublished data
# [10] = in vitro; details: Sprague Dawley, rat, plasma
# [11] = Plasma pharmacokinetics in cynomolgus monkeys after oral AT-752
# [12] = Plasma pharmacokinetics in Sprague Dawley rats after oral AT-752; details: male, Sprague Dawley, rat, in vivo, po, 300 mg/kg
# [13] = Plasma pharmacokinetics in CD-1 mice after oral AT-752; details: male, CD-1, mouse, in vivo, 420 mg/kg
# [14] = target: human cellular DNA-dependent DNA polymerase α; details: read-out: estimated IC50; cited from earlier work
# [15] = mice, single oral dose AT-281 50 mg/kg, 12 h, pooled from 3 animals
# [16] = rats, single oral dose AT-281 300 mg/kg, 24 h
# [17] = tested on: human mitochondrial DNA-directed RNA polymerase (POLRMT); details: cited from earlier work
# [18] = target: human cellular DNA-dependent DNA polymerase γ; details: read-out: estimated IC50; cited from earlier work
# [19] = monkeys, single oral dose of AT-752 equivalent to 55 mg/kg AT-281, 12 h
# [20] = target: human cellular DNA-dependent DNA polymerase β; details: read-out: estimated IC50; cited from earlier work
# [21] = male, cynomolgus, cynomolgus monkey, in vivo, po, 300 mg/kg
compound,measurement,setting,value
"Nc1nc2c(ncn2[C@@H]2O[C@H](COP(=O)(O)OP(=O)(O)OP(=O)(O)O)C[C@H]2O)c(=O)[nH]1 [3′-dGTP, reference compound]",effect on RNA synthesis after incorporation,[1],equivalent profile
CC(C)C(=O)OC[C@@]1(N=[N+]=[N-])O[C@@H](n2ccc(N)nc2=O)[C@H](OC(=O)C(C)C)[C@@H]1OC(=O)C(C)C [balapiravir],viremia in patients infected with DENV,[2],failed to reduce viremia
same,"antiviral response, cytokine profile and time to fever clearance vs placebo",[2]; tested clinically,no differences between compound and placebo treatment were observed
"COc1cc2nc(N3CCN(C(=O)C4COc5ccccc5O4)CC3)nc(N)c2cc1OC (stereo not drawn) [doxazosin, reference compound]",CC50 at 3 days,[3],7 µM
CNc1nc(N)nc2c1ncn2[C@@H]1O[C@H](CO[P@](=O)(N[C@@H](C)C(=O)OC(C)C)Oc2ccccc2)[C@@H](O)[C@@]1(C)F [AT-752],"viremia vs vehicle, day 6 pi","[4]; AG129 mice, oral 1,000 mg/kg loading 4 h before challenge then 500 mg/kg BID 7 days, P = 0.000014",significantly lower
same,"viremia vs control, day 4 pi",[4]; same regimen,did not demonstrate a difference in viremia
same,survival vs vehicle (Kaplan-Meier),"[4]; same regimen, P = 0.0004, Mantel-Cox log rank test",significantly improved the survival
same,health scores vs vehicle,"[4]; same regimen, day 4 to day 9 pi, P < 0.001",significantly better health scores
same,weight loss vs vehicle,"[4]; same regimen, days 5, 7 and 8 pi, P < 0.001",significantly reduced weight loss
same,spleen viral load vs control by day 7 pi,"[4]; same regimen, reduced compared to control",not statistically different
same,viremia by day 8 pi,"[4]; same regimen, virus still measurable in all surviving controls, P = 0.0045",cleared in all treated animals
same,safety findings,[5],no safety concerns
same,% of starting concentration remaining,[6],93.5%
same,drug remaining at first time point,[7],no drug remaining
same,% of starting concentration remaining,[8],98.2%
same,safety findings,[9],no safety concerns
same,half-life,[10],< 3 min
same,unusual or adverse clinical signs after dosing,"[11]; monkeys, oral AT-752 300 mg/kg or 60 mg/kg, observed before and after dosing and at blood collections",no such signs noted
CNc1nc(N)nc2c1ncn2[C@@H]1O[C@H](CO[P@](=O)(O)N[C@@H](C)C(=O)O)[C@@H](O)[C@@]1(C)F [AT-551],AUC(0-t),[12],56.5 µM·h
same,Cmax,[12],16500 ± 10800 nM
same,AUC(0-t),[13],58.7 ± 13.3 µM·h
same,Cmax,[13],45100 ± 12000 nM
same,Tmax,[13],0.5 h
same,AUC(0-t),[11]; [21],9.7 ± 2.2 µM·h
same,Cmax,[11]; [21],2000 ± 800 nM
same,Tmax,[11]; [21],2 h
C[C@@]1(F)[C@H](O)[C@@H](COP(=O)(O)OP(=O)(O)OP(=O)(O)O)O[C@H]1n1cnc2c(=O)[nH]c(N)nc21 [AT-9010],IC50,[14],> 100 µM
same,AT-9010 concentration in PBMCs,[15],0.092 pmol/10^6 cells
same,effect on RNA synthesis after incorporation,[1],immediate chain termination of RNA synthesis
same,discrimination factor (preference for GTP > AT-9010),"[1]; all four NTPs present, band product intensities at +5 and +7 positions",12.6 ± 4.3
same,AT-9010 concentration in PBMCs,[16],0.439 ± 0.218 pmol/10^6 cells
same,effect on mitochondrial integrity / inhibition of POLRMT,[17],not likely to affect mitochondrial integrity or inhibit human mitochondrial DNA-directed RNA polymerase
same,AT-9010 concentration in PBMCs,"mice, 500 mg/kg AT-281 then 250 mg/kg 4 h later, 4 h after the second dose",0.297 pmol/10^6 cells
same,IC50,[18],> 100 µM
same,AT-9010 concentration in PBMCs,[19],0.070 ± 0.046 pmol/10^6 cells
same,IC50,[20],> 100 µM
"C[C@@]1(F)[C@H](O)[C@@H](CO)O[C@H]1n1cnc2c(=O)[nH]c(N)nc21 [AT-273, 2′-fluoro-2′-C-methyl guanosine]",AUC(0-t),[12],22.9 µM·h
same,Cmax,[12],1300 ± 300 nM
same,Tmax,[12],8 h
same,plasma AT-273 concentration,"CD-1, mouse, in vivo",1.35 ± 0.86 nmol/mL
same,plasma AT-273 concentration,"mice, AT-281 1,000 mg/kg loading then 500 mg/kg BID 3 days, 12 h after the first 500-mg/kg dose",0.67 ± 0.12 nmol/mL
same,AUC(0-t),[13],18.8 ± 6 µM·h
same,Cmax,[13],2300 ± 700 nM
same,AUC(0-t),[11]; [21],7.8 ± 2.4 µM·h
same,Cmax,[11]; [21],800 ± 200 nM
